Experimental data reported in patent US10933056B2, “3-(1H-pyrazol-4-yl)pyridine allosteric modulators of the M4 muscarinic acetylcholine receptor” (Merck Sharp & Dohme Corp., priority 2015, dated 2021).

target: T1, human M4 muscarinic acetylcholine receptor (Homo sapiens, UniProt P08173); test: human FLIPR-based M4 PAM assay (calcium mobilization in CHO-K1 cells with human M4 receptor and Gαqi5); assay type: cell-based; details: inflection point of dose response curve, acetylcholine at 20% of maximum response, FLIPR Tetra, read-out: M4 PAM IP
T1 construct: expressed in transfected cells; host or cells: CHO-K1
T1 sequence (P08173 1-479): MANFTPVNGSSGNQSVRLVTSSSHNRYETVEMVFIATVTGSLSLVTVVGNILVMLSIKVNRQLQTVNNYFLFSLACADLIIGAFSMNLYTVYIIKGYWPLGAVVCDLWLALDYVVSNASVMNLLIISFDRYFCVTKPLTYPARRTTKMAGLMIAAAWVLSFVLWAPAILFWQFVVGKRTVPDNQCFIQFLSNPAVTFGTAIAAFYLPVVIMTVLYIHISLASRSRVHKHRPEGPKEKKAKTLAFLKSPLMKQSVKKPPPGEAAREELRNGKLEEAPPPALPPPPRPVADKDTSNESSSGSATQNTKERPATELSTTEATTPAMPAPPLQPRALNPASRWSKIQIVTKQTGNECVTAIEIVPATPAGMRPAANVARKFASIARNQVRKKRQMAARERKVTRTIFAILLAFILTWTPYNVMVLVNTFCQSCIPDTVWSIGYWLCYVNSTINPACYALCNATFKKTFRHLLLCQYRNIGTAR
Method in brief: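 CHO-K1 cells stably expressing human M4 and chimeric Gαqi5 were dye-loaded ~1 h at 37° C. Test compound was added with fluorescence recorded 4 min, then acetylcholine at EC20 (sometimes a further EC70 addition) with reading 3.5 min. Value is the inflection point of a 4-parameter logistic fit.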

`CC1(Cn2cc(-c3ccc(Cl)nc3-c3cnc4c(c3)C(=O)N(CC3CC3)C4)cn2)CCCC1` [Example 106, 3-(6-chloro-3-(1-((1-methylcyclopentyl)methyl)-1H-pyrazol-4-yl)pyridin-2-yl)-6-(cyclopropylmethyl)-6,7-dihydro-5H-pyrrolo[3,4-b]pyridin-5-one] and `C#CCN1Cc2ncc(-c3nc(CF)ccc3-c3cnn(CC4(C)CCCC4)c3)cc2C1=O` [Example 117, 3-(6-(Fluoromethyl)-3-(1-((1-methylcyclopentyl)methyl)-1H-pyrazol-4-yl)pyridin-2-yl)-6-(prop-2-yn-1-yl)-6,7-dihydro-5H-pyrrolo[3,4-b]pyridin-5-one] are within 1.5-fold of each other in EC50: 43 nM for the first, 32 nM for the second.

`CN1Cc2ccc(-c3nc(Cl)ccc3-c3cnn(CC4CCCC4)c3)cc2C1=O` [Example 107, 6-(6-Chloro-3-(1-(cyclopentylmethyl)-1H-pyrazol-4-yl)pyridin-2-yl)-2-methylisoindolin-1-one] and `O=C1c2cc(-c3nc(Cl)ccc3-c3cnn(CC4CCCC4)c3)ccc2CN1C1CC1` [Example 108, 6-(6-chloro-3-(1-(cyclopentylmethyl)-1H-pyrazol-4-yl)pyridin-2-yl)-2-cyclopropylisoindolin-1-one] are within 1.5-fold of each other in EC50: 15 nM for the first, 17 nM for the second.

`Cc1cc(-c2cnn(CC3(C)CCCC3)c2)c(-c2ccc3c(c2)C(=O)N(C)C3)nc1C` [Example 109, 6-(5,6-Dimethyl-3-(1-((1-methylcyclopentyl)methyl)-1H-pyrazol-4-yl)pyridin-2-yl)-2-methylisoindolin-1-one] and `Cc1cc(-c2cnn(CC3(C)CCCC3)c2)c(-c2ccc3c(c2)C(=O)N(C)C3)nc1C#N` [Example 111, 3-Methyl-6-(2-methyl-3-oxoisoindolin-5-yl)-5-(1-((1-methylcyclopentyl)methyl)-1H-pyrazol-4-yl)picolinonitrile] are within 1.5-fold of each other in EC50: 48 nM for the first, 35 nM for the second.

First: CN1Cc2ccc(-c3nc(C#N)ccc3-c3cn(CC4(C)CCCC4)nc3C#N)cc2C1=O [Example 110, 5-(3-Cyano-1-((1-methylcyclopentyl)methyl)-1H-pyrazol-4-yl)-6-(2-methyl-3-oxoisoindolin-5-yl)picolinonitrile]
Second: C#CCN1Cc2ccc(-c3nc(C#N)ccc3-c3cnn(CC4(C)CCCC4)c3)cc2C1=O [Example 120A]
The EC50 of the first is 5.1-fold higher: 86 nM for the first, 17 nM for the second.

`Cc1cc(-c2cnn(CC3(C)CCCC3)c2)c(-c2cnc3c(c2)C(=O)N(C)C3)nc1C#N` [Example 112, 3-methyl-6-(6-methyl-5-oxo-6,7-dihydro-5H-pyrrolo[3,4-b]pyridin-3-yl)-5-(1-((1-methylcyclopentyl)-methyl)-1H-pyrazol-4-yl)picolinonitrile] and `Cc1cc(-c2cnn(CC3(C)CCCC3)c2)c(-c2ccc3c(c2)C(=O)NC3)nc1C#N` [Example 112A, 3-methyl-5-(1-((1-methylcyclopentyl)methyl)-1H-pyrazol-4-yl)-6-(3-oxoisoindolin-5-yl)picolinonitrile] are within 1.5-fold of each other in EC50: 27 nM for the first, 36 nM for the second.

`Cc1cc(-c2cnn(CC3(C)CCCC3)c2)c(-c2ccc3c(c2)C(=O)N(C)C3)nc1C(N)=O` [Example 113, 3-Methyl-6-(2-methyl-3-oxoisoindolin-5-yl)-5-(1-((1-methylcyclopentyl)methyl)-1H-pyrazol-4-yl)picolinamide] and `Cc1cc(-c2cnn(CC3(C)CCCC3)c2)c(-c2ccc3c(c2)C(=O)N(C)C3)nc1CF` [Example 114, 6-(6-(Fluoromethyl)-5-methyl-3-(1-((1-methylcyclopentyl)methyl)-1H-pyrazol-4-yl)pyridin-2-yl)-2-methylisoindolin-1-one] are within 1.5-fold of each other in EC50: 69 nM for the first, 57 nM for the second.

Compared with `CC1(Cn2cc(-c3ccc(C(N)=O)nc3-c3ccc4c(c3)C(=O)NC4)cn2)CCCC1` [Example 113A, 5-(1-((1-methylcyclopentyl)methyl)-1H-pyrazol-4-yl)-6-(3-oxoisoindolin-5-yl)picolinamide], `CN1Cc2ccc(-c3nc4c(cc3-c3cnn(CC5(C)CCCC5)c3)CCC4=O)cc2C1=O` [Example 124, 2-(2-Methyl-3-oxoisoindolin-5-yl)-3-(1-((1-methylcyclopentyl)methyl)-1H-pyrazol-4-yl)-5,6-dihydro-7H-cyclopenta[b]pyridin-7-one] is 6.8-fold lower in EC50: 205 nM for the first, 30 nM for the second.

Compared with `CN1Cc2ccc(-c3nc(CF)c(F)cc3-c3cnn(CC4(C)CCCC4)c3)cc2C1=O` [Example 115, 6-(5-fluoro-6-(fluoromethyl)-3-(1-((1-methylcyclo-pentyl)-methyl)-1H-pyrazol-4-yl)pyridin-2-yl)-2-methylisoindolin-1-one], `COCc1nc(-c2ccc3c(c2)C(=O)N(C)C3)c(-c2cnn(CC3(C)CCCC3)c2)cc1C` [Example 116, 6-(6-(Methoxymethyl)-5-methyl-3-(1-((1-methylcyclopentyl)methyl)-1H-pyrazol-4-yl)pyridin-2-yl)-2-methylisoindolin-1-one] is 6.9-fold higher in EC50: 47 nM for the first, 326 nM for the second.

`C#CCN1Cc2ncc(-c3nc4c(cc3-c3cnn(CC5(C)CCCC5)c3)CCC4)cc2C1=O` [Example 118, 3-(3-(1-((1-methylcyclopentyl)methyl)-1H-pyrazol-4-yl)-6,7-dihydro-5H-cyclopenta[b]pyridin-2-yl)-6-(prop-2-yn-1-yl)-6,7-dihydro-5H-pyrrolo[3,4-b]pyridin-5-one] and `CC#CCN1Cc2ncc(-c3nc4c(cc3-c3cnn(CC5(C)CCCC5)c3)CCC4)cc2C1=O` [Example 119, 6-(but-2-yn-1-yl)-3-(3-(1-((1-methylcyclopentyl)methyl)-1H-pyrazol-4-yl)-6,7-dihydro-5H-cyclopenta[b]pyridin-2-yl)-6,7-dihydro-5H-pyrrolo[3,4-b]pyridin-5-one] are within 1.5-fold of each other in EC50: 79 nM for the first, 71 nM for the second.

`CC1(Cn2cc(-c3cc4c(nc3-c3cnc5c(c3)C(=O)N(CCF)C5)CCC4)cn2)CCCC1` [Example 118A, 6-(2-fluoroethyl)-3-(3-(1-((1-methylcyclopentyl)methyl)-1H-pyrazol-4-yl)-6,7-dihydro-5H-cyclopenta[b]pyridin-2-yl)-6,7-dihydro-5H-pyrrolo[3,4-b]pyridin-5-one] and `C#CCN1Cc2ccc(-c3nc4c(cc3-c3cnn(CC5(C)CCCC5)c3)CCC4)cc2C1=O` [Example 123, 6-(3-(1-((1-methylcyclopentyl)methyl)-1H-pyrazol-4-yl)-6,7-dihydro-5H-cyclopenta[b]pyridin-2-yl)-2-(prop-2-yn-1-yl)isoindolin-1-one] are within 1.5-fold of each other in EC50: 50 nM for the first, 48 nM for the second.

Going from `C#CCN1Cc2ncc(-c3nc(C#N)ccc3-c3cnn(CC4(C)CCCC4)c3)cc2C1=O` [Example 120, 5-(1-((1-methylcyclopentyl)methyl)-1H-pyrazol-4-yl)-6-(5-oxo-6-(prop-2-yn-1-yl)-6,7-dihydro-5H-pyrrolo[3,4-b]pyridin-3-yl)picolinonitrile] to `CC#CCN1Cc2ncc(-c3nc(C#N)ccc3-c3cnn(CC4(C)CCCC4)c3)cc2C1=O` [Example 122, 6-(6-(but-2-yn-1-yl)-5-oxo-6,7-dihydro-5H-pyrrolo[3,4-b]pyridin-3-yl)-5-(1-((1-methylcyclopentyl)methyl)-1H-pyrazol-4-yl)picolinonitrile], the EC50 rises from 26 nM to 41 nM (1.6-fold). The first is the more potent here.

For `CC(C)N1Cc2ncc(-c3nc(C#N)ccc3-c3cnn(CC4(C)CCCC4)c3)cc2C1=O` [Example 121, 6-(6-isopropyl-5-oxo-6,7-dihydro-5H-pyrrolo[3,4-b]pyridin-3-yl)-5-(1-((1-methylcyclopentyl)methyl)-1H-pyrazol-4-yl)picolinonitrile], the EC50 was 134 nM.
